From patent US20260234217A1, “USE OF BMP RECEPTOR ALK1 INHIBITORS IN OSTEOARTHRITIS THERAPIES” (The Regents of the University of California, priority 2023, published 2026)

What was measured:
[1] = system: articular cartilage of DMM mice; assay: DMM model of post-traumatic OA: Safranin-O/Fast Green staining and OARSI scoring of articular cartilage damage; format: in vivo, mouse; details: for articular cartilage damage (SOFG staining, OARSI scoring): treatment from the time of DMM surgery, weekly, compared to PBS
Experimental: FIG. 13. Growth differentiation factor 11 (GDF11, see, e.g., NCBI Reference Sequence: NP_005802.1) competes with BMP9/10 for binding to BMP type II receptors ACVRIIA or ACVRIIB, thereby preventing the association of BMP type I receptor ALK1 with ACVRIIA/B and decreasing BMP signaling. […] We tested this hypothesis by locally injecting GDF11 (50 ng/dose) into the knee joint space at mice with established post-traumatic OA. (A) Experimental Outline (B) Safranin-O/Fast Green (SOFG) Staining of sagittal sections of the knee joint, femur (top) and tibia (bottom) for proteoglycan (cartilage; red) and bone (green) at week 8 after DMM or Sham surgery. Mice were treated with either GDF11, or Phosphate Buffered Saline (PBS) after received surgery (n=5/group). 4-Week DMM mice were sacrificed 4 weeks after surgery and received no treatment (n=6). AC damage indicated by dotted line. (C-D) Osteoarthritis Research Society International (OARSI) scoring of AC damage in the (C) medial tibial plateau and (D) medial femoral condyle in representative sections of each treatment at week 4 or 8 after surgery. All data are shown as mean bar+/−standard deviation *p<0.05. Data analysis performed was one-way ANOVA. Scale 250 uM.
(§1) Mice (C57BL/6J) were purchased from The Jackson Laboratory. All mice were housed on a 12-hour light/dark cycle with unrestricted access to standard mouse food and water. The DMM model of injury induced OA was performed on mice at 12 weeks of age by opening the joint capsule and transecting the medial meniscotibial ligament in the right knee, destabilizing the medial meniscus(48). A sham operation was performed on the left knee of each mouse by observing the medial meniscotibial ligament but not transecting it. Mice were administered carprofen 5 mg/kg (Zoetis; 1041283) subcutaneously 30 minutes prior to surgery, immediately post-surgery, and 24 hours post-surgery to minimize pain.
(§2) Treatments were initiated either 1 day after DMM surgery once a week for 8 weeks, or 1 month after DMM surgery twice a week for 4 weeks. Mice were sacrificed at 20 weeks of age (2 months after surgery). To understand the level of articular cartilage damage 1 month after DMM surgery, a cohort of mice was sacrificed at 16 weeks old (FIG. 4).
(§3) Knee joint samples were harvested and fixed in 4% Paraformaldehyde for 3 days, and subsequently decalcified in formic acid (Statlab; 1414-32) for 3 days and embedded in paraffin. Sagittal sections 7 micrometers in thickness were taken and stained using Safranin-O (Sigma-Aldrich; S8884-25G), fast green (Sigma-Aldrich; F7258-25G), and hematoxylin (Fisherbrand; 245-656) using a standard histology protocol. Images were taken with the Olympus BX60 brightfield microscope using a 10× objective lens. Representative sections throughout the medial and lateral portion of side were chosen for histological analysis, resulting in 5 sections being imaged for both portions of the joint.
The 10 total sections per joint chosen for histology received randomized sample numbers and were given to three independent researchers who scored the level of cartilage damage based on OARSI guidelines (84). OARSI scores were analyzed with Prism 9 Software (GraphPad) using two-way ANOVA and Tukey's multiple comparisons test post-hoc. Scoring was performed by at least three experienced investigators blinded to treatment/genotype. Scores were averaged for the medial tibial plateau, medial femoral condyle, lateral tibial plateau, and lateral femoral condyle for each sample.

[2] = system: osteophytes in the DMM joint; assay: Micro-CT total knee osteophyte volume in DMM mice; format: in vivo, mouse
Experimental: as §1, §2
Dissected knee joints underwent Micro-CT analysis using the Skyscan 1172 in vivo μCT scanner (Bruker micro-CT, Kontich, Belgium) at 55 kV and 181 μA, with a resolution of 10 μm. […] Average osteophyte volume was analyzed with Prism 9 Software (GraphPad) using two-way ANOVA and Tukey's multiple comparisons test post-hoc. […]

ALK3 [3] = target: T1, ALK3 (Homo sapiens, UniProt P36894); assay: kinase assay (biochemical IC50, literature); details: concentration of 200 nM
ALK3 [4] = target: T1, ALK3; details: kinase assay; cited from earlier work
adult growth plate = assay: SOFG histology of proximal tibial growth plate in DMM mice; format: in vivo, mouse; details: week 8 after DMM surgery
From the text: FIG. 10. […] Sagittal sections of the proximal tibial growth plate were stained with Safranin-O/Fast Green (SOFG) to visualize proteoglycan (red) in the growth plate, subchondral bone (top blue), and trabecular bone (bottom blue) at week 8 after DMM or Sham surgery. […] Alk1^Col2 mice underwent DMM surgery (DMM+Alk1^Col2). WT control mice (lacking Col2a1-Cre) underwent sham surgery and received PBS treatment (Sham+PBS). (n=5/group).
as §3

[5] = delayed treatment, week 8, vs vehicle-treated mice examined 4 weeks after surgery

T1 sequence (P36894 24-532, species assumed): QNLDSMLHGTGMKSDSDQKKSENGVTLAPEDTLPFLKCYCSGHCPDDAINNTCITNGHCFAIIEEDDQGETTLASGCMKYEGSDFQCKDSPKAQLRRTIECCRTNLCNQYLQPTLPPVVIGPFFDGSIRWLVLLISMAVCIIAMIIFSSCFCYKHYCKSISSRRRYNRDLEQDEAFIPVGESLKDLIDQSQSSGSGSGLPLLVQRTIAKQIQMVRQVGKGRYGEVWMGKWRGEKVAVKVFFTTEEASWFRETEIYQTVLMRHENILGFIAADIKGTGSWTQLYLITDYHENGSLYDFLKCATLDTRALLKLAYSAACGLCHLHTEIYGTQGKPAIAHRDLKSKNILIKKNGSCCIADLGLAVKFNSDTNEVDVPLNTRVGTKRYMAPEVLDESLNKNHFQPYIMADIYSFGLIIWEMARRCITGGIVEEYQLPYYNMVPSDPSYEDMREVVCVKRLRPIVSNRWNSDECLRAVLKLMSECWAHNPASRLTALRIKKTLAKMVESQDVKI

For `COc1cc(-c2cc(-c3ccc(N4CCNCC4)cc3)cnc2C)cc(OC)c1OC` [LDN-214117], the “articular cartilage damage, femoral surface” value [1, 5] was “less damage”, the “articular cartilage damage, tibial surface” value [1, 5] was “less damage” and the “articular cartilage damage (OARSI scoring)” value ([1]; treatment beginning 4 weeks after DMM, examined 8 weeks after surgery, vs vehicle-treated mice at 8 weeks) was “significantly less damage”. For the same molecule, the “articular cartilage damage (SOFG staining, OARSI scoring)” value ([1]; week 8) was “sufficient to prevent degradation of AC”, the “articular cartilage damage (SOFG staining, OARSI scoring)” value ([1]; week 8, listed as BMP-KI) was “protection of articular cartilage” and the “osteophyte volume (MicroCT)” value ([2]; applied after a 1-month delay) was “significant reduction in osteophyte volume”. For the same molecule, the “osteophyte volume (MicroCT)” value ([2]; treated immediately after surgery, compared to vehicle, week 8) was “reduced osteophyte volume”, the “effect on ALK3 at the injected concentration” value (ALK3 [3]) was under 25 % IC50 and the IC50 (ALK3 [4]) was 1.17 µM. The “impact on adult growth plate maintenance” value (adult growth plate) was “no obvious impact”.
